Data taken from patent publication US12428406B2 (PMV Pharmaceuticals, Inc., priority 2019, dated 2025).

Target: T1, p53 Y220C (Homo sapiens, UniProt P04637, Y220C)
T1 construct: The recombinant protein was a truncation mutant containing only amino acids 94-312 of p53; made in house; host or cells: E. coli
Test: In vitro DNA binding activity assay (HTRF / TR-FRET): stabilization of p53 Y220C and increase of its DNA binding activity
Assay type: biochemical
Conditions: recombinant His-tagged p53 Y220C DNA binding domain (aa 94-312), biotin-labeled consensus DNA, incubated at 27° C. or 29° C. for 60 min
Summary of the method: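 Test compounds, diluted 3-fold in DMSO from 4.5 mM stocks, were incubated with bacterially expressed His-tagged p53 Y220C at room temperature for 15 min, and after a further step for 20 min. DNA binding was detected by time-resolved FRET between APC and europium labels. SC150 marks the concentration increasing binding by 50%.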

T1 sequence (P04637 94-312, change not shown): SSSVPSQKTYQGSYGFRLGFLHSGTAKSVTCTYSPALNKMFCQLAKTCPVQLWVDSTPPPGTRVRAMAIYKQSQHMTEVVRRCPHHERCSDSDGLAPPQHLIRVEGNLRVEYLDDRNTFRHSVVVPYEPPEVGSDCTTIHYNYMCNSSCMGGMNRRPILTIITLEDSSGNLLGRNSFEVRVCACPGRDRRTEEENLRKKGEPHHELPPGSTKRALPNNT

| SC150 (concentration of the compound required to increase the DNA binding activity by 50%) | SMILES |
| --- | --- |
| + (+ = 0 μM ≤ SC150 < 0.05 μM) | CNC(=O)c1ccc(NCC#Cc2cc3c(N[C@H]4CC[C@](C)(O)CC4)cccc3n2CC(F)(F)F)c(OC)c1 [Compound 31A, 3-methoxy-N-methyl-4-{[3-(4-{[(1R,4R)-4-hydroxy-4-methylcyclohexyl]amino}-1-(2,2,2-trifluoroethyl)-1H-indol-2-yl)prop-2-yn-1-yl]amino}benzamide] |
| + (+ = 0 μM ≤ SC150 < 0.05 μM) | CNC(=O)c1ccc(NCC#Cc2cc3c(N[C@H]4CC[C@@](C)(O)CC4)cccc3n2CC(F)(F)F)c(OC)c1 [Compound 32A, 3-methoxy-N-methyl-4-{[3-(4-{[(1S,4S)-4-hydroxy-4-methylcyclohexyl]amino}-1-(2,2,2-trifluoroethyl)-1H-indol-2-yl)prop-2-yn-1-yl]amino}benzamide] |
| + (+ = 0 μM ≤ SC150 < 0.05 μM) | CNC(=O)c1ccc(NCC#Cc2cc3c(NC4CCC(C#N)CC4)cccc3n2CC(F)(F)F)c(OC)c1 (centres unmarked) [Compound 33A, 4-[(3-{4-[(4-cyanocyclohexyl)amino]-1-(2,2,2-trifluoroethyl)-1H-indol-2-yl}prop-2-yn-1-yl)amino]-3-methoxy-N-methylbenzamide] |
| + (+ = 0 μM ≤ SC150 < 0.05 μM) | CNC(=O)c1ccc(NCC#Cc2cc3c(N[C@H]4CC[C@H](C#N)CC4)cccc3n2CC(F)(F)F)c(OC)c1 [Compound 34A, 3-methoxy-N-methyl-4-{[3-(4-{[(1R,4R)-4-cyanocyclohexyl]amino}-1-(2,2,2-trifluoroethyl)-1H-indol-2-yl)prop-2-yn-1-yl]amino}benzamide] |
| + (+ = 0 μM ≤ SC150 < 0.05 μM) | CNC(=O)c1ccc(NCC#Cc2cc3c(N[C@H]4CC[C@@H](C#N)CC4)cccc3n2CC(F)(F)F)c(OC)c1 [Compound 35A, 3-methoxy-N-methyl-4-{[3-(4-{[(1S,4S)-4-cyanocyclohexyl]amino}-1-(2,2,2-trifluoroethyl)-1H-indol-2-yl)prop-2-yn-1-yl]amino}benzamide] |
| +++ (+++ = 0.1 μM ≤ SC150 < 0.2 μM) | COc1cc(S(C)(=O)=O)ccc1NCC#Cc1cc2c(NC3CCCC(C(=O)O)C3)cccc2n1CC(F)(F)F (centres unmarked) [Compound 36A, 3-[(2-{3-[(4-methane-sulfonyl-2-methoxy-phenyl)amino]prop-1-yn-1-yl}-1-(2,2,2-trifluoroethyl)-1H-indol-4-yl)amino] cyclohexane-1-carboxylic acid] |
| + (+ = 0 μM ≤ SC150 < 0.05 μM) | COc1cc(S(C)(=O)=O)ccc1NCC#Cc1cc2c(NC3CCC(N)CC3F)cccc2n1CC(F)(F)F (centres unmarked) [Compound 37A] |
| + (+ = 0 μM ≤ SC150 < 0.05 μM) | CNC1CCC(Nc2cccc3c2cc(C#CCNc2ccc(S(C)(=O)=O)cc2OC)n3CC(F)(F)F)C(F)C1 (centres unmarked) [Compound 39A] |
| + (+ = 0 μM ≤ SC150 < 0.05 μM) | COc1cc(S(C)(=O)=O)ccc1NCC#Cc1cc2c(NC3CCC(N(C)C)CC3F)cccc2n1CC(F)(F)F (centres unmarked) [Compound 41A] |
| + (+ = 0 μM ≤ SC150 < 0.05 μM) | COc1cc(S(C)(=O)=O)ccc1NCC#Cc1cc2c(N[C@@H]3CCC(O)C[C@@H]3F)cccc2n1CC(F)(F)F (stereo partly drawn) [Compound 43A, (3S,4R)-3-fluoro-4-[(2-{3-[(4-methanesulfonyl-2-methoxyphenyl)amino]prop-1-yn-1-yl}-1-(2,2,2-trifluoroethyl)-1H-indol-4-yl)amino]cyclohexan-1-ol] |
| + (+ = 0 μM ≤ SC150 < 0.05 μM) | COc1cc(S(N)(=O)=O)ccc1NCC#Cc1cc2c(N[C@H]3CC[C@H](N(CCO)CCO)CC3)cccc2n1CC(F)(F)F [Compound 44A, 3-methoxy-4-{[3-(4-{[(1R,4R)-4-[bis(2-hydroxyethyl)amino]cyclohexyl]amino}-1-(2,2,2-trifluoroethyl)-1H-indol-2-yl)prop-2-yn-1-yl]amino}benzene-1-sulfonamide] |
| + (+ = 0 μM ≤ SC150 < 0.05 μM) | COc1cc(S(N)(=O)=O)ccc1NCC#Cc1cc2c(N[C@H]3CC[C@@H](N(CCO)CCO)CC3)cccc2n1CC(F)(F)F [Compound 45A, 3-methoxy-4-{[3-(4-{[(1S,4S)-4-[bis(2-hydroxyethyl)amino]cyclohexyl]amino}-1-(2,2,2-trifluoroethyl)-1H-indol-2-yl)prop-2-yn-1-yl]amino}benzene-1-sulfonamide] |
| + (+ = 0 μM ≤ SC150 < 0.05 μM) | COc1cc(S(=O)(=O)Nc2ccon2)ccc1NCC#Cc1cc2c(N[C@H]3CC[C@H](N(C)C)CC3)cccc2n1CC(F)(F)F [Compound 48A, 3-methoxy-N-(1,2-oxazol-3-yl)-4-{[3-(4-{[(1R,4R)-4-(dimethylamino)cyclo-hexyl]amino}-l-(2,2,2-trifluoroethyl)-1H-indol-2-yl)prop-2-yn-1-yl]amino}benzene-1-sulfonamide] |
| + (+ = 0 μM ≤ SC150 < 0.05 μM) | COc1cc(S(=O)(=O)NC2CCOCC2)ccc1NCC#Cc1cc2c(N[C@H]3CC[C@H](N(C)C)CC3)cccc2n1CC(F)(F)F [Compound 49A, 3-methoxy-N-(oxan-4-yl)-4-{[3-(4-{[(1R,4R)-4-(dimethylamino)cyclohexyl]amino}-1-(2,2,2-trifluoroethyl)-1H-indol-2-yl)prop-2-yn-1-yl]amino}benzene-1-sulfonamide] |
| + (+ = 0 μM ≤ SC150 < 0.05 μM) | COc1cc(S(=O)(=O)Nc2ccon2)ccc1NCC#Cc1cc2c(N[C@H]3CC[C@@H](N(C)C)CC3)cccc2n1CC(F)(F)F [Compound 50A, 3-methoxy-N-(1,2-oxazol-3-yl)-4-{[3-(4-{[(1S,4S)-4-(dimethylamino)cyclohexyl]amino}-1-(2,2,2-trifluoro-ethyl)-1H-indol-2-yl)prop-2-yn-1-yl]amino}benzene-1-sulfonamide] |
| + (+ = 0 μM ≤ SC150 < 0.05 μM) | COc1cc(S(=O)(=O)NC2CCOCC2)ccc1NCC#Cc1cc2c(N[C@H]3CC[C@@H](N(C)C)CC3)cccc2n1CC(F)(F)F [Compound 51A, 3-methoxy-N-(oxan-4-yl)-4-{[3-(4-{[(1S,4S)-4-(dimethylamino)cyclohexyl]amino}-1-(2,2,2-trifluoroethyl)-1H-indol-2-yl)prop-2-yn-1-yl]amino}benzene-1-sulfonamide] |
| + (+ = 0 μM ≤ SC150 < 0.05 μM) | COc1cc(S(=O)(=O)Nc2cc(C)on2)ccc1NCC#Cc1cc2c(N[C@H]3CC[C@@H](N(C)C)CC3)cccc2n1CC(F)(F)F [Compound 54A, 3-methoxy-N-(5-methyl-1,2-oxazol-3-yl)-4-{[3-(4-{[(1S,4S)-4-(dimethylamino)cyclohexyl]amino}-l-(2,2,2-trifluoroethyl)-1H-indol-2-yl)prop-2-yn-1-yl]amino}benzene-1-sulfonamide] |
